Reference: patent US5654411A, “Process for preparing 4-deoxyerythromycin derivatives” (Abbott Laboratories, priority 1995, dated 1997)

Tested on: smooth muscle strips isolated from rabbit small intestine
Experiment: Induction of in vitro rabbit duodenal smooth muscle contraction
Conditions: for EC50: Oryctolagus cuniculus, rabbit duodenum longitudinal muscle, 37° C., pH 7.5, read-out: pED50 (negative logarithm of the concentration producing half of the maximal contraction) (converted); for Relative Potency: relative to erythromycin A = 1.0
Experimental: The compounds of the present invention were tested in vitro for their ability to induce contraction of smooth muscle strips isolated from rabbit small intestine using the following procedure:
Rabbits were sacrificed and 15 cm of duodenum was rapidly removed and placed in ice-cold modified Ringers solution (120 mM sodium chloride, 25 mM sodium bicarbonate, 4.7 mM potassium chloride, 1.25 mM calcium chloride, 1.20 mM magnesium sulfate and 5.6 mM glucose). The longitudinal muscle layer was separated from the circular muscle by blunt dissection and cut into strips of 10×20 mm. Double-folded strips were vertically suspended between two hooks in 10 mL tissue baths with a mechanical preload of 1 g. The upper hook was connected to an […] force transducer, and its displacement was recorded on a Grass polygraph. The tissue baths contained modified Ringers solution at 37° C. and were continuously gassed with 95% oxygen/5% carbon dioxide in order to maintain the pH at 7.5.
After a stabilization period of at least 60 minutes, a contractility dose-response series was performed by adding increasing final concentrations of methacholine (10^-7 M, 10^-6 M and 10^-5 M) in volumes of 100 μL. The bath solutions were replaced at least three times between doses.
After the methacholine dose-response series was completed, a test compound dose response curve was initiated by the same procedure used for the methacholine dose-response series, with at least five concentrations of test compound within the range of 10^-10 M to 10^-4 M. The tissues were washed repeatedly between doses, and the studies were completed by recording the contractile response to 10^-5 M methacholine to ascertain integrity of the muscle preparation. Contractile responses were expressed as percent of maximal contraction. The concentration of test compound which produces half of the maximal contraction (ED50 value) and the negative logarithm of the ED50 value (PED50) were estimated from the dose-response curves.

With `C#CC[N+](C)(C)[C@H]1C[C@@H](C)O[C@@H](O[C@@H]2[C@@H](C)[C@H](O[C@H]3C[C@@](C)(OC)C[C@H](C)O3)[C@@H](C)C(=O)O[C@H](CC)[C@H](C)[C@H](O)[C@@H](C)C3=C(C)C[C@@]2(C)O3)[C@@H]1O` [Example 8, 8,9-anhydro-4"-deoxy-3'-N-propargylerythromycin B-6,9-hemiketal bromide] the EC50 was 50.1 nM and the “Relative Potency” value was 28.

`CC[C@H]1OC(=O)[C@H](C)[C@@H](O[C@H]2C[C@@](C)(OC)C[C@H](C)O2)[C@H](C)[C@@H](O[C@@H]2O[C@H](C)C[C@H](NC)[C@H]2O)[C@@]2(C)C[C@H](C)C(O2)[C@H](C)[C@@H](O)[C@]1(C)O` [Example 10, 9-deoxo-3'-N-desmethyl-4",6-dideoxy-8-epi-6,9-epoxyerythromycin A] was tested, and the EC50 was 17.8 nM and the “Relative Potency” value was 79.

For `C#CC[N+](C)(C)[C@H]1C[C@@H](C)O[C@@H](O[C@@H]2[C@@H](C)[C@H](O[C@H]3C[C@@](C)(OC)C[C@H](C)O3)[C@@H](C)C(=O)O[C@H](CC)[C@@](C)(O)[C@H](O)[C@@H](C)C3O[C@]2(C)C[C@@H]3C)[C@@H]1O` [Example 12, 9-deoxo-4",6-dideoxy-8-epi-6,9-epoxy-3'-N -propargylerythromycin A bromide], the EC50 was 23.4 nM and the “Relative Potency” value was 60.

For `CC[C@H]1OC(=O)[C@H](C)[C@@H](O[C@H]2C[C@@](C)(OC)C[C@H](C)O2)[C@H](C)[C@@H](O[C@@H]2O[C@H](C)C[C@H](N(C)C)[C@H]2O)[C@@]2(C)C[C@@H](C)C(O2)[C@H](C)[C@@H](O)[C@]1(C)O` [Example 13, 9-deoxo-4",6-dideoxy-6,9-epoxyerythromycin A], the EC50 was 0.166 nM and the “Relative Potency” value was 8,511.

With `CC[C@H]1OC(=O)[C@H](C)[C@@H](O[C@H]2C[C@@](C)(OC)C[C@H](C)O2)[C@H](C)[C@@H](O[C@@H]2O[C@H](C)C[C@H](NC)[C@H]2O)[C@@]2(C)C[C@@H](C)C(O2)[C@H](C)[C@@H](O)[C@]1(C)O` [Example 14, 9-Deoxo-4',6-Dideoxy-3'-N-Desmethyl-6,9-Epoxyerythromycin A] the EC50 was 70.8 nM and the “Relative Potency” value was 20.

In the case of `C#CC[N+](C)(C)[C@H]1C[C@@H](C)O[C@@H](O[C@@H]2[C@@H](C)[C@H](O[C@H]3C[C@@](C)(OC)C[C@H](C)O3)[C@@H](C)C(=O)O[C@H](CC)[C@@](C)(O)[C@H](O)[C@@H](C)C3O[C@]2(C)C[C@H]3C)[C@@H]1O` [Example 16, 9-deoxo-4",6-dideoxy-6,9-epoxy-3'-N-propargylerythromycin A bromide], the EC50 is reported as 40.7 nM and the “Relative Potency” value is reported as 35.

In the case of `CC[C@H]1OC(=O)[C@H](C)[C@@H](O[C@H]2C[C@@](C)(OC)[C@@H](O)[C@H](C)O2)[C@H](C)[C@@H](O[C@@H]2O[C@H](C)C[C@H](N(C)C)[C@H]2O)[C@](C)(O)C[C@@H](C)C(=O)[C@H](C)[C@@H](O)[C@]1(C)O` [erythromycin A, reference compound], the EC50 is reported as 1410 nM.
